Laboratory results: US20160122320A1, “USEFUL COMBINATIONS OF MONOBACTAM ANTIBIOTICS WITH BETA-LACTAMASE INHIBITORS” (Basilea Pharmaceutica AG, priority 2005, published 2016)
Structures can show the parent of a compound that is named as a salt.

Legend:
Assay in all cases: MIC, NCCLS broth microdilution
Format in all cases: cell-based
Acinetobacter sp. J2 = settings: for MIC of antibiotic at fixed inhibitor concentration (4 mg/L): Acinetobacter sp. J2, MIC of antibiotic compound 1 with the labelled bridged monobactam of formula II and clavulanate, 4 mg/L each
[1] = system: Pseudomonas aeruginosa MK1184; settings: for MIC of antibiotic at fixed inhibitor concentration (4 mg/L): MIC of antibiotic compound 1 with the labelled bridged monobactam of formula II and clavulanate, 4 mg/L each
[2] = system: Pseudomonas aeruginosa 1973E; settings: for MIC of antibiotic at fixed inhibitor concentration (4 mg/L): MIC of antibiotic compound 1 with the labelled bridged monobactam of formula II and clavulanate, 4 mg/L each
Protocol: Antimicrobial activity of the compounds and of their combinations was determined against a selection of organisms according to the standard procedures described by the National Committee for Clinical Laboratory Standards (National Committee for Clinical Laboratory. Standards (2000). Methods for Dilution Antimicrobial Susceptibility Tests for Bacteria That Grow Aerobically-Fifth Edition: Approved Standard M7-A5. NCCLS, Wayne, Pa., USA).
In all cases the final concentration of DMSO incubated with the bacteria is less than or equal to 1%. […] Plates were incubated overnight at an appropriate temperature (30° C. or 37° C.) and optical densities assessed by eye. The MIC value is defined as the lowest compound concentration completely inhibiting visible growth of the test organism. When combinations between compounds of formula I with compounds of formula II and are evaluated the compounds of formula I are tested in dilution series as described above while the compounds of formula II and III-XIII were present in all wells at a constant concentration of 4 μg/mL each.

Enterobacter cloacae P99 = settings: for MIC of antibiotic at fixed inhibitor concentration (4 mg/L): MIC of antibiotic compound 1 with the labelled bridged monobactam of formula II and clavulanate, 4 mg/L each
[3] = system: Klebsiella pneumoniae CF104; settings: for MIC of antibiotic at fixed inhibitor concentration (4 mg/L): MIC of antibiotic compound 1 with the labelled bridged monobactam of formula II and clavulanate, 4 mg/L each
Serratia marcescens S6 = settings: for MIC of antibiotic at fixed inhibitor concentration (4 mg/L): MIC of antibiotic compound 1 with the labelled bridged monobactam of formula II and clavulanate, 4 mg/L each
[4] = system: Stenotrophomonas malthophilia 1AC736; settings: for MIC of antibiotic at fixed inhibitor concentration (4 mg/L): Stenotrophomonas malthophilia 1AC736, MIC of antibiotic compound 1 with the labelled bridged monobactam of formula II and clavulanate, 4 mg/L each
[5] = with clavulanate (clavulanic acid)

| MIC of antibiotic at fixed inhibitor concentration (4 mg/L) (Acinetobacter sp. J2) [µg/mL] | MIC of antibiotic at fixed inhibitor concentration (4 mg/L) [1] [µg/mL] | MIC of antibiotic at fixed inhibitor concentration (4 mg/L) [2] [µg/mL] | MIC of antibiotic at fixed inhibitor concentration (4 mg/L) (Enterobacter cloacae P99) [µg/mL] | MIC of antibiotic at fixed inhibitor concentration (4 mg/L) [3] [µg/mL] | MIC of antibiotic at fixed inhibitor concentration (4 mg/L) (Serratia marcescens S6) [µg/mL] | MIC of antibiotic at fixed inhibitor concentration (4 mg/L) [4] [µg/mL] | MIC of antibiotic at fixed inhibitor concentration of 4 mg/L (Acinetobacter sp. J2; Acinetobacter baumannii J2, with clavulanate (clavulanic acid)) [µg/mL] | MIC of antibiotic at fixed inhibitor concentration of 4 mg/L [1, 5] [µg/mL] | MIC of antibiotic at fixed inhibitor concentration of 4 mg/L [2, 5] [µg/mL] | MIC of antibiotic at fixed inhibitor concentration of 4 mg/L (Enterobacter cloacae P99; [5]) [µg/mL] | MIC of antibiotic at fixed inhibitor concentration of 4 mg/L [3, 5] [µg/mL] | MIC of antibiotic at fixed inhibitor concentration of 4 mg/L (Serratia marcescens S6; [5]) [µg/mL] | MIC of antibiotic at fixed inhibitor concentration of 4 mg/L ([4]; Stenotrophomonas maltophilia 1AC736, with clavulanate (clavulanic acid)) [µg/mL] | Structure (SMILES) |
| --- | --- | --- | --- | --- | --- | --- | --- | --- | --- | --- | --- | --- | --- | --- |
| 4 | 8 | 4 | 16 | 2 | 0.5 | 0.125 | – | – | – | – | – | – | – | Cc1nnc(SCC(=O)N2CC[C@@H]3[C@H]2C(=O)N3S(=O)(=O)[O-])s1.[Na+] [Compound 202, Sodium(1S,5R)-2-[2-(1-methyl(1,3,4-thiadiazol-2-ylthio))acetyl]-7-oxo-2,6-diazabicyclo[3.2.0]heptane-6-sulfonate] |
| 4 | >32 | 4 | 32 | 1 | 0.25 | 0.125 | – | – | – | – | – | – | – | O=C(NCc1cccs1)N1CC[C@@H]2[C@H]1C(=O)N2S(=O)(=O)[O-].[Na+] [Compound 314] |
| 4 | 32 | 8 | 32 | >32 | 2 | 0.125 | – | – | – | – | – | – | – | O=C(CSc1nnnn1-c1ccccc1)N1CC[C@@H]2[C@H]1C(=O)N2S(=O)(=O)[O-].[Na+] [Compound 201] |
| 4 | 4 | 2 | 4 | 1 | 0.25 | 0.125 | – | – | – | – | – | – | – | NC(=O)c1ccc[n+](CC(=O)N2CC[C@@H]3[C@H]2C(=O)N3S(=O)(=O)[O-])c1 [Compound 102, (1S,5R)-2-[2-β-carbamoylpyridinium)acetyl]-7-oxo-2,6-diazabicyclo[3.2.0]heptane-6-sulfonate, inner salt] |
| – | – | – | – | – | – | – | >32 | >32 | >32 | >32 | 32 | >32 | >32 | CC1(C)S[C@@H]2[C@H](NC(=O)[C@H](N)c3ccc(O)cc3)C(=O)N2[C@H]1C(=O)O [Amoxicillin, amoxicillin, reference compound] |
| >32 | 16 | 4 | 4 | 2 | 0.5 | 0.125 | – | – | – | – | – | – | – | CN(C)CCNC(=O)c1ccc(NC(=O)N2CC[C@@H]3[C@H]2C(=O)N3S(=O)(=O)[O-])cc1.[Na+] [Compound 310, Sodium(1S,5R)-2-[N-(4-{N-[2-(dimethylamino)ethyl]carbamoyl}phenyl)carbamoyl]-7-oxo-2,6-diazabicyclo[3.2.0]heptane-6-sulfonate] |
